# Patent US20050009730A1, “Treatment of cns disorders using cns target modulators” (priority 2001, published 2005)
# Read-outs that look alike come from different tables or passages of the source. Marks after values point to notes of the source that are not given here.
# Tests used:
# HERG = HERG (Homo sapiens, UniProt Q12809)
# Histamine, H2 = Histamine, H2 (Homo sapiens, UniProt P25021); test: Receptor selectivity binding assay comparison; conditions: 1.0E−6
# [1] = biological target: T1, Muscarinic, M2 (Human Recombinant) (Homo sapiens, UniProt P08172); test: Receptor selectivity binding assay comparison; conditions: 1.0E−6
# T1 sequence (P08172 1-466): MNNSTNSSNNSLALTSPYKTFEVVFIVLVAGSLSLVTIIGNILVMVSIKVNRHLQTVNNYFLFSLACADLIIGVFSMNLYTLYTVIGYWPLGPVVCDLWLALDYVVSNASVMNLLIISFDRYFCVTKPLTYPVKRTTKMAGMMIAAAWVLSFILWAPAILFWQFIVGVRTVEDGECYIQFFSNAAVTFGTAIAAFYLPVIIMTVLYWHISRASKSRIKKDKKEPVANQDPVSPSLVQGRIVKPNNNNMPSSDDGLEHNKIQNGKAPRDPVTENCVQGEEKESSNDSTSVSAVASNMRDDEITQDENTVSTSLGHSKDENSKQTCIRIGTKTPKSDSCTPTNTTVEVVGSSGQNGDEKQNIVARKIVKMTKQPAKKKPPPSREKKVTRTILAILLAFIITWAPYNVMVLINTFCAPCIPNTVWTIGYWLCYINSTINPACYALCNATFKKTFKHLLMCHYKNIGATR
# Male Wistar rats = test: Sleep-wakefulness, locomotor activity and body temperature monitoring (SCORE-2000), treatment at CT-18; conditions: 30 mg/kg PO, at CT-18
# [2] = biological target: T2, Muscarinic, M1 (Human Recombinant) (Homo sapiens, UniProt P11229); test: Receptor selectivity binding assay comparison; conditions: 1.0E−6
# T2 sequence (P11229 1-460): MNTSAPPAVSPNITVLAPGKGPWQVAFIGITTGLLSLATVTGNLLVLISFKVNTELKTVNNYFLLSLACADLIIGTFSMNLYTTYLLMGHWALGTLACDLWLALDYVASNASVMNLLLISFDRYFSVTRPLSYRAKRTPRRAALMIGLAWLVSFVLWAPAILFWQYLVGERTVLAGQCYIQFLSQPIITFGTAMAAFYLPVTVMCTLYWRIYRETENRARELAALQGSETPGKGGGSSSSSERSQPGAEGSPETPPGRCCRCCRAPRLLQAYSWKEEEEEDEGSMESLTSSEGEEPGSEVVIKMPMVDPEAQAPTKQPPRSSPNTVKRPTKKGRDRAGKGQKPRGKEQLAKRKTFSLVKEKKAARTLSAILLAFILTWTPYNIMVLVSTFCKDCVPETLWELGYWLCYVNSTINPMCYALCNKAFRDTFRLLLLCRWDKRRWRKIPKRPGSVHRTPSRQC
# [3] = biological target: Norepinephrine Transporter (Homo sapiens, UniProt P23975); test: Receptor selectivity binding assay comparison; conditions: 1.0E−6
# Norepinephrine Transporter, sequence (P23975 whole entry, species assumed): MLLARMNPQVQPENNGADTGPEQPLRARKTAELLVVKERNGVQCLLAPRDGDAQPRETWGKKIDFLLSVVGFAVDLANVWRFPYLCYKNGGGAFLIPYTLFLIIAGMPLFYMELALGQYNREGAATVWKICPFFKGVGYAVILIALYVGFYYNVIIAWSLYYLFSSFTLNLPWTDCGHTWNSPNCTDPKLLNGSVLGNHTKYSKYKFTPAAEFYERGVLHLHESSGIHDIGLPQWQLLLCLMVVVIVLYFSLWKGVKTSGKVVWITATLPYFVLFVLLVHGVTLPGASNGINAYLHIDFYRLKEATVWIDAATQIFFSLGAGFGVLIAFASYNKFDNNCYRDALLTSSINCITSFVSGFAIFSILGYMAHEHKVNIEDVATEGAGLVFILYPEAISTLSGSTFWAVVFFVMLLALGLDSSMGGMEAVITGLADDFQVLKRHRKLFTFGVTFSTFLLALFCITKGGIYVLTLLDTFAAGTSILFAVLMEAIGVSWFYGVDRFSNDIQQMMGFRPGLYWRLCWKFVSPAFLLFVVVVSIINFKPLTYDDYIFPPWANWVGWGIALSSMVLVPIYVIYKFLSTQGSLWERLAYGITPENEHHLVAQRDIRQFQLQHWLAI
# Histamine, H1 = Histamine, H1 (Homo sapiens, UniProt P35367); test: H1 binding assay by displacement of known standards
# Histamine, H1, sequence (P35367 whole entry): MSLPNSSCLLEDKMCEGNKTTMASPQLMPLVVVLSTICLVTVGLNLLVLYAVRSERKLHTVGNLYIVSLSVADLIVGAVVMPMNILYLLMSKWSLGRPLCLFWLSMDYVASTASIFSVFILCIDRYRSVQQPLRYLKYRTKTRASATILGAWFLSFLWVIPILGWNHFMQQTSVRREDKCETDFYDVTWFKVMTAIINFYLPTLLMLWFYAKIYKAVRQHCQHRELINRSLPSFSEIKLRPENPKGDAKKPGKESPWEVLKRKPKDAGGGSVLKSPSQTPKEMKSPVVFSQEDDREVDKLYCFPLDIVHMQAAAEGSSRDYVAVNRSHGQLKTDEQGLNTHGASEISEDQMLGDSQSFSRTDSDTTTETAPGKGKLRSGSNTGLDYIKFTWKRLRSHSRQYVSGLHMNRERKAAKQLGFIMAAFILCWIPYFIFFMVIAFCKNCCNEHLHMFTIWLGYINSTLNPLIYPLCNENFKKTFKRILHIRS
# Experimental: (§1) The following binding assays were performed on the Series 11 compounds described above by displacement of known standards from the H1, M1, M2, and M3 receptors, wherein H1 is a histamine receptor, and M1, M2, and M3 are muscarinic receptors.
# The binding studies against the histamine receptor, H1, indicate binding affinity, and therefore the results of the binding assays are an indication of the activity of the compound. […]
# The following binding assays were performed on additional compounds described above by displacement of known standards from the H1, M1, M2, and M3 receptors, wherein H1 is a histamine receptor, and M1, M2, and M3 are muscarinic receptors.
# The binding assays for H1 was the same as described in Example 10 and the M1, M2, and M3 binding assays are the same as those described in Example 10 for human recombinant expressed cells.
# M1 muscarinic receptor = biological target: T3, M1 muscarinic receptor (Homo sapiens, UniProt P11229); test: M1 binding assay by displacement of known standards (Example 11)
# T3 sequence (P11229 1-460): T2 sequence (P11229 1-460)
# Experimental: as §1
# (§2) In addition, the binding studies against the muscarinic receptors indicate the extent to which the compounds bind the muscarinic receptors, responsible for anti-cholinergic activity of the compound. Binding to muscarinic receptors results in several undesired side effects of many known antihistamines, e.g., dry-mouth. A decrease in the binding of the compounds to the M1-M3 receptors, relative the binding of the compound to the H1 receptor, is an indication of the greater specificity of the compound for the histamine receptor over the muscarinic receptor.
# M3 muscarinic receptor = M3 muscarinic receptor (Homo sapiens, UniProt P20309); test: M3 binding assay by displacement of known standards (Example 11)
# M3 muscarinic receptor, sequence (P20309 whole entry): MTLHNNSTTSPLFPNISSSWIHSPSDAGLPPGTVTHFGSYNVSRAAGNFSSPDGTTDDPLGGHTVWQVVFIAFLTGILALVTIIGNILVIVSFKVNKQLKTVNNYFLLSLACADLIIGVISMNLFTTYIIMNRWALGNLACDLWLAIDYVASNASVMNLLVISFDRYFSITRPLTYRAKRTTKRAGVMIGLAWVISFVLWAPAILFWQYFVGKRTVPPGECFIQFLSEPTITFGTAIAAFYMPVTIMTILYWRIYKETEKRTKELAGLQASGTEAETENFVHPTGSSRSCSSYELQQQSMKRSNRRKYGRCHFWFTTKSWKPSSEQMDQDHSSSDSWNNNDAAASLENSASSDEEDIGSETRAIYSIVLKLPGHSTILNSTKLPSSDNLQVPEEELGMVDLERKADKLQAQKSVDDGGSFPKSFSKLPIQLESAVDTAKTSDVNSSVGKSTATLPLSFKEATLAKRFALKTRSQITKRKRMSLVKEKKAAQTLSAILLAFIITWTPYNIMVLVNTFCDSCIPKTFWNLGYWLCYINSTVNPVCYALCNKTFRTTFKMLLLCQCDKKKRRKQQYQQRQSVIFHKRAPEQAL
# Experimental: as §1, §2
# M2 muscarinic receptor = biological target: T4, M2 muscarinic receptor (Homo sapiens, UniProt P08172); test: M2 binding assay by displacement of known standards (Example 11)
# T4 sequence (P08172 1-466): T1 sequence (P08172 1-466)
# Experimental: as §1, §2
# muscarinic receptors = test: Muscarinic receptor binding, M1, M2 and M3 taken together in the conclusions
# Experimental: as §1, §2
# [4] = in human blood; cited from earlier work
# HERG, sequence (Q12809 whole entry): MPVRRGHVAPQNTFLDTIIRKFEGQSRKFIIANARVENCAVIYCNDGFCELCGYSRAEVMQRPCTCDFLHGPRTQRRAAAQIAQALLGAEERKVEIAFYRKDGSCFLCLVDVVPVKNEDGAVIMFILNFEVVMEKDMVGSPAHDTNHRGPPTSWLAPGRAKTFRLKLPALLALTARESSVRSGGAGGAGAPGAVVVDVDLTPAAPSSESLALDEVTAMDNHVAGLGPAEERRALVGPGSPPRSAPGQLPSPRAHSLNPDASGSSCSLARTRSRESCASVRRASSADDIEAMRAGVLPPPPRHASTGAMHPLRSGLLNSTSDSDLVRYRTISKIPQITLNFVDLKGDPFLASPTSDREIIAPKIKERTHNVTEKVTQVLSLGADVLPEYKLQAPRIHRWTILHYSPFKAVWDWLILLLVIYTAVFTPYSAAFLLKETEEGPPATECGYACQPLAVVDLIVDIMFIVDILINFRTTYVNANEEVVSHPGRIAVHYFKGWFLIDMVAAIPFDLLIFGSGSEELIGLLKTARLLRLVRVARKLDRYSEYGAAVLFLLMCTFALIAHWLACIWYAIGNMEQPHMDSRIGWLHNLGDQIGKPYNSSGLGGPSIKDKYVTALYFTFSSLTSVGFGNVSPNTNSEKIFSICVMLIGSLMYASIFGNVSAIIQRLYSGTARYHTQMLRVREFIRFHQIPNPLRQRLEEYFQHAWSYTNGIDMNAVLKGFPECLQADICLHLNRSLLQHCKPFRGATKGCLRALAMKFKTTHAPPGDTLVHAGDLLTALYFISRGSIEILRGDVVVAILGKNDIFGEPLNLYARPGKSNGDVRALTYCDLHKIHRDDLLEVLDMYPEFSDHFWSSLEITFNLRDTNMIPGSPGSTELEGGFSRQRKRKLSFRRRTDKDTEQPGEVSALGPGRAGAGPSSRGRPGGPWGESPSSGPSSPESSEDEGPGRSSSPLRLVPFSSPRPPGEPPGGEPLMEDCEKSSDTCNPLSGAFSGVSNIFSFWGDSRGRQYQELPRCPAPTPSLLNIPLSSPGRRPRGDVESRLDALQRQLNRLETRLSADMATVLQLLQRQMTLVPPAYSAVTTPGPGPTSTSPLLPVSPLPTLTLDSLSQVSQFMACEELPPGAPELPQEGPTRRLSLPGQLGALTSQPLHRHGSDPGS
# Histamine, H2, sequence (P25021 whole entry): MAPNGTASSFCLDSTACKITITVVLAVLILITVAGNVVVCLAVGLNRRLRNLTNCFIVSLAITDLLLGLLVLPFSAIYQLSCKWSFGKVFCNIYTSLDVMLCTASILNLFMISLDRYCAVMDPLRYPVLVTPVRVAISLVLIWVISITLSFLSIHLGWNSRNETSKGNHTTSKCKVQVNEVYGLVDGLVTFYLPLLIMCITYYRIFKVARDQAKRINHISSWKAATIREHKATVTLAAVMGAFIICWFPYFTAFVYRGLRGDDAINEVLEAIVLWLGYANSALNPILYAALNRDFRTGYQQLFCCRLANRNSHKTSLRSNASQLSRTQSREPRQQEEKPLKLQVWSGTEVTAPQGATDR
compound,measurement,setting,value
"CN(C)CCC=C1c2ccccc2COc2ccccc21 [Doxepin, reference compound]","Percent Inhibition, HERG",HERG,23%**
same,"Percent Inhibition, Histamine, H2","Histamine, H2",74.7%
O=C(O)CCN1CCC(=C2c3ccccc3COc3ccccc32)CC1 [Series 8a],Average Bout-Length,Male Wistar rats,12.2 min
same,Maximum Bout Length,Male Wistar rats,28.9 min
same,NREM Accum.,Male Wistar rats,65.8 min
same,NREM Peak,Male Wistar rats,75.5 %/hr
same,Onset,Male Wistar rats,65 min
same,"Percent Inhibition, HERG",HERG,4%
same,"Percent Inhibition, Muscarinic, M1 (Human Recombinant)",[2],3.3%
same,"Percent Inhibition, Histamine, H2","Histamine, H2",33.4%
same,"Percent Inhibition, Norepinephrine Transporter",[3],−3.9%
same,Ki,"Histamine, H1; read-out: Receptor Binding Data (Ki nM) H1",62.5 nM
O=C(CCN1CCC(=C(c2ccccc2)c2ccccc2)CC1)O[C@H]1CCOC1 [Series 11g],IC50,M1 muscarinic receptor,4680 nM
same,Ki,M1 muscarinic receptor,360 nM
same,IC50,M3 muscarinic receptor,5710 nM
same,Ki,M3 muscarinic receptor,1560 nM
same,IC50,"Histamine, H1",196 nM
same,difference in binding affinity towards the H1 receptor between the enantiomeric compounds,"Histamine, H1",do not result in a substantial difference
same,Ki,"Histamine, H1; read-out: H1 Ki",86.1 nM
same,IC50,M2 muscarinic receptor,5700 nM
same,Ki,M2 muscarinic receptor,2080 nM
same,difference in binding affinity towards the muscarinic receptors between the enantiomeric compounds,muscarinic receptors,do show a substantial difference
Nc1ncnc2c1ncn2[C@@H]1O[C@H](CO)[C@@H](O)[C@H]1O [adenosine],half-life,[4],< 1 s
